One assay deals with SH2 and PTB domains. Conditions: most recent PM interactions, ref Jones et al. 2006 / Kaushansky et al. Mol Biosys 2008 / Kaushansky et al. Chem and Biol 2008, cited from earlier work. From the text: Supplement pone.0044471.s022.xlsx, sheet "Most recent PM interactions" | column: Kd || Supplement pone.0044471.s022.xlsx, sheet "All original PM interactions" | column: Kd
A further assay addresses GRB7 SH2 domain (Homo sapiens, UniProt Q14451). Also noted: 6X His; thioredoxin; made in house; host or cells: E. coli BL21(DE3)pLysS. Conditions: Protein GRB7; most recent PM interactions; ref Jones et al. 2006 / Kaushansky et al. Mol Biosys 2008 / Kaushansky et al. Chem and Biol 2008; cited from earlier work.
In the next assay the target is T1, PLCG1-C SH2 domain (Homo sapiens, UniProt P19174).
T1 construct: The 6X His-tagged SH2 domain proteins used in the assay, PLCG1-C, SHC4, VAV2; thioredoxin; made in house; host or cells: E. coli BL21(DE3)pLysS
T1 sequence (P19174 668-756 limits assumed): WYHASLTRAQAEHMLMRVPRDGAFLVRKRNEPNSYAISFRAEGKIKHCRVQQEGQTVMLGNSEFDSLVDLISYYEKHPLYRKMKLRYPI
As to the kind of experiment: biochemical. Type of assay: binding. The settings on record: high-confidence ErbB interactions.

Another assay addresses T2, RASA1-N SH2 domain (Homo sapiens, UniProt P20936).
T2 sequence (P20936 181-272 limits assumed): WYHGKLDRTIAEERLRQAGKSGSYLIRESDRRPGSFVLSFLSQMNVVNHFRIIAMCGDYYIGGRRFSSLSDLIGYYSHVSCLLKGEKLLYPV
As to the kind of experiment: FP saturation binding assay.

The target of assay [1] is PIK3R2-NC tandem SH2 domains (Homo sapiens, UniProt O00459). As to the kind of experiment: FP saturation binding assay.
Chain of PIK3R2-NC tandem SH2 domains (O00459 330-716 limits assumed): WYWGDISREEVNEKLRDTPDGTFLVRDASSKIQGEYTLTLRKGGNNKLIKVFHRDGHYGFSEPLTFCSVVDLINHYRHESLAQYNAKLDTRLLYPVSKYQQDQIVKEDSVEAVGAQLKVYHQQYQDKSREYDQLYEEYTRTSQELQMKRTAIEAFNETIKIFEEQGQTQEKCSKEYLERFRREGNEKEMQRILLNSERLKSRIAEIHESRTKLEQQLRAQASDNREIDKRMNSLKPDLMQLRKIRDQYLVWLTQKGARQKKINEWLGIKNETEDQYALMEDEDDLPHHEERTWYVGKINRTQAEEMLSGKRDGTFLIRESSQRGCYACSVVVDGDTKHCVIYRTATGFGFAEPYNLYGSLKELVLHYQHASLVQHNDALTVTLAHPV
Assay [2] deals with T3, PLCG1-NC tandem SH2 domains (Homo sapiens, UniProt P19174).
T3 construct: the tandem protein was included in our analysis with all internal amino acids linking the domains; 6X His; thioredoxin; made in house; host or cells: E. coli BL21(DE3)pLysS
T3 sequence (P19174 550-756 limits assumed): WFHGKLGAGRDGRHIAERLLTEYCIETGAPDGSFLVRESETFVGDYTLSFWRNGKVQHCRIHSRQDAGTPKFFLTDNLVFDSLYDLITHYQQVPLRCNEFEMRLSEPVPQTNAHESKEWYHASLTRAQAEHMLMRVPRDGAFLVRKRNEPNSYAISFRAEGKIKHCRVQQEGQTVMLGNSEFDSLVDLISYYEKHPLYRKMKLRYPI
Briefly: FP saturation binding assay. Conditions: protein PLCG1-NC; FP, high-confidence ErbB interactions; mean of replicate hits. Here is the method: (See Figure 1A) Rhodamine-labeled peptides were dissolved in assay buffer (20 mM HEPES, 100 mM KCl, 0.1% Tween-20, 5 mM DTT, pH 7.8), diluted to a concentration of 20 nM, and plated into black 384-well plates (Corning, Corning, NY) at 5 µL/well using a Perkin Elmer EP3 pipetting workstation (V&P Scientific, Inc., San Diego, CA). SH2, PTB, and thioredoxin control proteins were plated into the first column of 2 mL 96-well plates (Corning) at a concentration of 20 µM and serially diluted 1∶2 into freezing buffer (300 mM NaCl, 50 mM Na2PO4, pH 8, 20% glycerol v/v) eleven times using a Tecan Freedom EVO 100 workstation (Tecan, Männedorf, Switzerland). For the interaction assay, 5 µL of each of the twelve protein concentrations was added to the peptide-containing 384-well plates via the EP3 resulting in a protein dilution range of 0.002–10 µM and a final volume of 10 µL; peptide concentration was fixed at 10 nM. […] Experimental values were output as millipolarization (mP) units and imported into MATLAB (The MathWorks, Inc., Natick, MA) in which equation (1) was used to determine dissociation constants (KDs) for each protein/peptide pairing by least squares nonlinear regression. [drawing 1] (1)
FP was described by the following equation: P=Iparallel-IperpendicularIparallel+Iperpendicular, where “P” denotes polarization, and “I” denotes the fluorescent intensity relative to the plane of incident light. Experimental values were output as millipolarization (mP) units and imported into MATLAB where the following equation was used to determine dissociation constants (KDs) for each protein/peptide pairing by least squares nonlinear regression:
Pobs=Pmax∙ProteinKD+Protein [picture] (1)
Peptides were initially tested for systematic plate effects across protein dilutions and nonspecific binding to thioredoxin by linear regression analysis and any effects were regressed out. The median baseline control polarization value for each plate was then subtracted from each data point to make each binding curve intersect at zero. Plates with excessive variation in baseline control polarizations on both a global and run-specific manner (Dixon’s Q test, p < 0.05) were excluded from further analysis. Outliers in each binding curve were identified and removed using an iterative procedure as follows. The residuals for each fit were used to calculate a global standard deviation of the residuals (GSDR) for each concentration of SH2 domain over all interactions, and individual data points with residuals < or > two GSDR from the global mean residual were flagged as outliers. The outlier with the largest residual from each interaction was removed and nonlinear regression was again performed. This procedure was repeated if additional outliers were identified for an interaction, discarding the interaction if the number of outliers exceeded three. […] In order to further control our false positive rate against hidden confounding variables producing binding artifacts, we sought to determine whether there was a significant relationship between the strength of an interaction and its technical replication rate at our stringent significance and filtering thresholds. We performed logistic regression on the proportion of successful replicates for each interaction query against KD for all interactions (Figure S15A). […] “High-confidence” FP interactions are defined as those having 1 - P(Observed Replication Rate | Expectation) > 0.5 and that have replicated at least twice across independent FP runs. […] The compiled FP data were organized into heatmaps generated by MATLAB and relative binding strength (µM). Peptides without at least one positive hit were classified as “no interaction” if there was no homologous sequence (i.e. identical at the +1 to +4 positions relative to the phosphotyrosine) that produced a positive interaction within the ErbB receptor family.

Like-named read-outs stand apart in the source and are kept apart here. Residues, ends and D or L forms follow the SMILES beside them.

Chain of GRB7 SH2 domain (Q14451 431-527 limits assumed): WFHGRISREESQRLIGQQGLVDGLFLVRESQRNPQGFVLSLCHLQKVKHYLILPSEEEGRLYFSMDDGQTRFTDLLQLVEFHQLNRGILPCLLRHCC

As a reminder, the Kd is the equilibrium constant for the complex coming apart. As to LPSPTDSNFpYRALMDEEd [ErbB1 998], the Kd on SH2 and PTB domains (Protein BLK) was 190 nM; at SH2 and PTB domains (Protein FES) it was 1230 nM; on SH2 and PTB domains (Protein GRB10), 1690 nM; at SH2 and PTB domains (Protein ITK) it was 280 nM; on SH2 and PTB domains (Protein PIK3R1-NC), 240 nM; on SH2 and PTB domains (Protein PIK3R3-NC), 970 nM. Moreover, the Kd on SH2 and PTB domains (Protein PLCG2-NC) was 1390 nM; at SH2 and PTB domains (Protein RASA1-N), 710 nM; on SH2 and PTB domains (Protein RASA1-NC), 1650 nM; on SH2 and PTB domains (Protein SH2B3) it was 1360 nM; at SH2 and PTB domains (Protein SHC1-PTB), 1150 nM; at SH2 and PTB domains (Protein SHC2-PTB), 980 nM. For the same molecule, the Kd was 1140 nM on SH2 and PTB domains (Protein SRC); 910 nM at SH2 and PTB domains (Protein SYK-NC); 720 nM at SH2 and PTB domains (Protein YES1); 1650 nM on SH2 and PTB domains (Protein ZAP70-NC); 760 nM at GRB7 SH2 domain.
On to `CC(C)C[C@H](NC(=O)[C@H](CO)NC(=O)[C@H](Cc1ccccc1)NC(=O)[C@H](CCC(=O)O)NC(=O)[C@H](CO)NC(=O)[C@H](CC(C)C)NC(=O)[C@H](Cc1ccc(OP(=O)(O)O)cc1)NC(=O)[C@H](CCC(=O)O)NC(=O)[C@@H]1CCCN1C(=O)[C@H](CC(N)=O)NC(=O)[C@@H](N)CCC(=O)O)C(=O)N[C@@H](CCCCN)C(=O)N[C@@H](CC(=O)O)C(=O)O` [ErbB4 1284 13-mer] (HELM PEPTIDE1{E.N.P.E.[O=C([C@H](Cc1ccc(OP(=O)(O)O)cc1)N[*:1])[*:2]].L.S.E.F.S.L.K.D}$$$$V2.0), for which the Kd at PLCG1-C SH2 domain (protein PLCG1-C, mean of replicate hits) amounted to 3.68 µM.
Turning to `CSCC[C@H](NC(=O)[C@H](Cc1ccc(OP(=O)(O)O)cc1)NC(=O)[C@H](CCC(=O)O)NC(=O)[C@H](Cc1ccc(O)cc1)NC(=O)[C@H](CC(=O)O)NC(=O)[C@@H](N)CCC(=O)O)C(=O)N[C@@H](CC(N)=O)C(=O)N[C@@H](CCCNC(=N)N)C(=O)N[C@@H](CCC(N)=O)C(=O)N[C@@H](CCCNC(=N)N)C(=O)N[C@@H](CC(=O)O)C(=O)NCC(=O)N[C@@H](CC(=O)O)C(=O)O` [ErbB3 1262 13-mer] (HELM PEPTIDE1{E.D.Y.E.[O=C([C@H](Cc1ccc(OP(=O)(O)O)cc1)N[*:1])[*:2]].M.N.R.Q.R.D.G.D}$$$$V2.0), the equilibrium dissociation constant (Kd) at RASA1-N SH2 domain is 9.06 µM; in assay [1] it was 18.1 µM.
`CC(C)C[C@H](NC(=O)[C@H](Cc1ccc(OP(=O)(O)O)cc1)NC(=O)[C@H](CCC(=O)O)NC(=O)[C@H](CCC(N)=O)NC(=O)[C@H](CCCCN)NC(=O)[C@@H]1CCCN1)C(=O)N[C@@H](CC(N)=O)C(=O)N1CCC[C@H]1C(=O)N[C@H](C(=O)N[C@@H](CCC(=O)O)C(=O)N[C@@H](CCC(=O)O)C(=O)N[C@@H](CC(N)=O)C(=O)N[C@@H](CC(=O)O)C(=O)O)C(C)C` [ErbB4 1162 13-mer] (HELM PEPTIDE1{P.K.Q.E.[O=C([C@H](Cc1ccc(OP(=O)(O)O)cc1)N[*:1])[*:2]].L.N.P.V.E.E.N.D}$$$$V2.0): the Kd in assay [2] was 5.31 µM; on RASA1-N SH2 domain, 2.9 µM.
For the molecule `CC(C)C[C@H](NC(=O)[C@H](Cc1ccc(OP(=O)(O)O)cc1)NC(=O)[C@H](CCC(=O)O)NC(=O)[C@H](C)NC(=O)[C@H](CC(N)=O)NC(=O)[C@@H](N)CCC(=O)O)C(=O)N[C@@H](CCCNC(=N)N)C(=O)N[C@H](C(=O)N[C@@H](C)C(=O)N1CCC[C@H]1C(=O)N[C@@H](CCC(N)=O)C(=O)N[C@@H](CO)C(=O)N[C@@H](CC(=O)O)C(=O)O)C(C)C` [ErbB1 1197 13-mer] (HELM PEPTIDE1{E.N.A.E.[O=C([C@H](Cc1ccc(OP(=O)(O)O)cc1)N[*:1])[*:2]].L.R.V.A.P.Q.S.D}$$$$V2.0), at PLCG1-C SH2 domain (Protein PLCG1-C, FP saturation binding, mean over replicate hits), the equilibrium dissociation constant (Kd) worked out at 5.67 µM.

The values above are taken from PMC3433420 (PLoS ONE, 2012).
